Experiment [1] has as its system wildtype Wnt signaling cascade. Briefly: HEK293 TOP assay (Super TopFlash luciferase reporter, Wnt-3a stimulated). It is filed as cell-based. Conditions: Homo sapiens, HEK293, 16 h, HEK293 TOP reporter cells, Wnt3a at EC50, 16 hours. In outline: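 HEK293 cells stably carrying Super TopFlash (TOP) run in parallel with FOP cells, 10000/well plated 24 h ahead, stimulated with recombinant human Wnt-3a. Compounds tested 50 μM to 15 nM in 3.16-fold steps in CAFTY buffer pH 7.4 with 2 mM Ca^2+ and 0.01% BSA; luciferase read-out.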
On the technique in general: A reporter such as luciferase makes a cellular process visible.

Another experiment concerns the target T1, TNKS2 (Homo sapiens, UniProt Q9H2K2).
T1 construct: purchased BPS Bioscience, San Diego, USA 80572 (TNKS2 Histone Ribosylation Assay Kit)
T1 sequence (Q9H2K2 1-1166): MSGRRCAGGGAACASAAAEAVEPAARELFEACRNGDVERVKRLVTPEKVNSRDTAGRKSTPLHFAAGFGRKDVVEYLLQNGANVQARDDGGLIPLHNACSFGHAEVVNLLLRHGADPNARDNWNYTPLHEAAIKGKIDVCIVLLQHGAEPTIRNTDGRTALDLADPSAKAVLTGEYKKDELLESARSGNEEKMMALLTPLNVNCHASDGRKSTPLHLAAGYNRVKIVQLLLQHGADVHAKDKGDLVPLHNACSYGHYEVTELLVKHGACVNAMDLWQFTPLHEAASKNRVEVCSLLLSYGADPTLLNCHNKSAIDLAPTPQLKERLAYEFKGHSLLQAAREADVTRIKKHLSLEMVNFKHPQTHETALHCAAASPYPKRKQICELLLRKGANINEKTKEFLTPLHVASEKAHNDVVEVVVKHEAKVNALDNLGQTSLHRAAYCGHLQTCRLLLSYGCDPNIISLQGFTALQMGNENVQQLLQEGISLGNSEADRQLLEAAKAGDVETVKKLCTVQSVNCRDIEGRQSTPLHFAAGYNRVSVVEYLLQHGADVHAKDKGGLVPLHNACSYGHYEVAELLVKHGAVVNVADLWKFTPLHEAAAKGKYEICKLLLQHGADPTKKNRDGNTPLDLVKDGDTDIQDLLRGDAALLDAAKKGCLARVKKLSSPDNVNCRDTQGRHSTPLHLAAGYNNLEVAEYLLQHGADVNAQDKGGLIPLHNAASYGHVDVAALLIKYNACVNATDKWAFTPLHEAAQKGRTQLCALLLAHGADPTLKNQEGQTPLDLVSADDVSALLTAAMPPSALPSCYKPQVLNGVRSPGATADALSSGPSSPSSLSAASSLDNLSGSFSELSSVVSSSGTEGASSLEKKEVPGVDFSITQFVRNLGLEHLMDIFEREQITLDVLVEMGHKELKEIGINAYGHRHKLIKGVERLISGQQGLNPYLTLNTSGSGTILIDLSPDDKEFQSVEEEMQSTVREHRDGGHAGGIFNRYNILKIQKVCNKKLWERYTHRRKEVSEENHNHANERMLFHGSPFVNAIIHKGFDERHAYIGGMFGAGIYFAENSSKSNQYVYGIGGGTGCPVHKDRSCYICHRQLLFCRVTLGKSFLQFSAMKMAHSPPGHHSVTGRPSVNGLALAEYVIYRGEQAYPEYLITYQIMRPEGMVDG
Description: TNKS2 Assay B (auto-parsylation, [3H]-NAD+ SPA). Conditions: 6 nM TNKS2, auto-parsylation, over night at room temperature. The format is biochemical.

Our source for the IC50 values is US20180148418A1, “AMIDO-SUBSTITUTED CYCLOHEXANE DERIVATIVES” (Bayer Pharma Aktiengesellschaft, priority 2015, published 2018).

The structures appear in SMILES notation.

Broadly, the IC50 is the point on the concentration scale where inhibition reaches its midpoint. A low value points to greater potency in that assay. Regarding `O=C(N[C@H]1CC[C@@]2(CCN(c3ccc(F)cc3Cl)C2=O)CC1)c1cnn2ccc(N3CCCC3)nc12` [Example 232, N-[(trans)-2-(2-chloro-4-fluorophenyl)-1-oxo-2-azaspiro[4.5]dec-8-yl]-5-(pyrrolidin-1-yl)pyrazolo[1,5-a]pyrimidine-3-carboxamide], the results for the IC50 (in experiment [1]; on TNKS2) were 6.4 nM and 3.3 nM, respectively.

For `COCCNC(=O)c1nc[nH]c1C(=O)N[C@H]1CC[C@@]2(CCN(c3cc(F)c(F)cc3Cl)C2=O)CC1` [Example 202, N^5-[(trans)-2-(2-chloro-4,5-difluorophenyl)-1-oxo-2-azaspiro[4.5]dec-8-yl]-N^4-(2-methoxyethyl)-1H-imidazole-4,5-dicarboxamide], the figures for the IC50 (in experiment [1]; against TNKS2) were 0.55 nM and 2.9 nM, respectively.

Take `O=C(NC1CCC2(CC1)CCN(c1cc(F)c(F)cc1Cl)C2=O)c1cnn2cccnc12` (single isomer, unassigned; isomer 1) [Example 168, N-[2-(2-chloro-4,5-difluorophenyl)-1-oxo-2-azaspiro[4.5]dec-8-yl]pyrazolo[1,5-a]pyrimidine-3-carboxamide (isomer 1)]: the figures for the IC50 (in experiment [1]; at TNKS2) were 0.23 nM and 3.1 nM, respectively.

Turning to `CCNC(=O)c1nc[nH]c1C(=O)N[C@H]1CC[C@H](C(=O)Nc2ccc(F)cc2Cl)CC1` [Example 15, N^5-{trans-4-[(2-chloro-4-fluorophenyl)carbamoyl]cyclohexyl}-N^4-ethyl-1H-imidazole-4,5-dicarboxamide], the IC50 is 71 nM in experiment [1] and 42 nM against TNKS2.

With `O=C(N[C@H]1CC[C@@]2(CCN(c3ccc(F)cc3Cl)C2=O)CC1)c1nc[nH]c1C(=O)NCC(F)(F)F` [Example 195, N^4-[(trans)-2-(2-chloro-4-fluorophenyl)-1-oxo-2-azaspiro[4.5]dec-8-yl]-N^5-(2,2,2-trifluoroethyl)-1H-imidazole-4,5-dicarboxamide], the concentration for half-maximal inhibition (IC50) in experiment [1] came to 1.3 nM; on TNKS2 it was 7.1 nM.

Take `Cc1cnc2c(C(=O)N[C@H]3CC[C@@]4(CCN(c5ccc(F)cc5)C4=O)CC3)cnn2c1` [Example 210, N-[(trans)-2-(4-fluorophenyl)-1-oxo-2-azaspiro[4.5]dec-8-yl]-6-methylpyrazolo[1,5-a]pyrimidine-3-carboxamide]: the IC50 is 280 nM in experiment [1] and 92 nM against TNKS2.

Take `CC(C)(C)OC(=O)N1CCN(c2ccn3ncc(C(=O)N[C@H]4CC[C@@]5(CCN(c6ccc(F)cc6Cl)C5=O)CC4)c3n2)CC1` [Example 225, tert-butyl 4-(3-{[(trans)-2-(2-chloro-4-fluorophenyl)-1-oxo-2-azaspiro[4.5]dec-8-yl]carbamoyl}pyrazolo[1,5-a]pyrimidin-5-yl)piperazine-1-carboxylate]: the IC50 in experiment [1] stood at 59 nM; against TNKS2 it was 2.5 nM.

On to `CNC(=O)c1nc[nH]c1C(=O)N[C@H]1CC[C@H](C(=O)N(C)c2ccc(F)cc2Cl)CC1` [Example 173, N^5-{trans-4-[(2-chloro-4-fluorophenyl)(methyl)carbamoyl]cyclohexyl}-N^4-methyl-1H-imidazole-4,5-dicarboxamide], for which the IC50 in experiment [1] worked out at 190 nM; against TNKS2, 180 nM.

For the molecule `COCCNC(=O)c1nc[nH]c1C(=O)N[C@H]1CC[C@H](C(=O)Nc2ccc(F)cc2Cl)CC1` [Example 19, N^5-{trans-4-[(2-chloro-4-fluorophenyl)carbamoyl]cyclohexyl}-N^4-(2-methoxyethyl)-1H-imidazole-4,5-dicarboxamide], the IC50 in experiment [1] turned out to be 89 nM; at TNKS2, 160 nM.

For `CC1CN(C(=O)c2nc[nH]c2C(=O)N[C@H]2CC[C@@]3(CCN(c4ccc(F)cc4Cl)C3=O)CC2)CCS(=O)(=O)C1` (stereo partly drawn) [Example 183, N-[(trans)-2-(2-chloro-4-fluorophenyl)-1-oxo-2-azaspiro[4.5]dec-8-yl]-4-[(6-methyl-1,1-dioxido-1,4-thiazepan-4-yl)carbonyl]-1H-imidazole-5-carboxamide], the IC50 in experiment [1] was found to be 210 nM; on TNKS2, 400 nM.
